Assay results from patent US20260234147A1 (priority 2023, published 2026).
Where two headings read alike, the source gives them in different places.

Legend:
hMOR = hMOR (Homo sapiens, UniProt P35372); assay: Radioligand binding assay (Eurofins Cerep), [3H]DAMGO displacement; settings: for Ki: 3 independent experiments
α2A adrenergic receptor = biological target: T1, α2A adrenergic receptor (Homo sapiens, UniProt P08913); assay: Radioligand binding assay (Eurofins Cerep), [3H]RX 821002 displacement
T1 construct: Eurofins Cerep (contract screening)
T1 sequence (P08913 1-465): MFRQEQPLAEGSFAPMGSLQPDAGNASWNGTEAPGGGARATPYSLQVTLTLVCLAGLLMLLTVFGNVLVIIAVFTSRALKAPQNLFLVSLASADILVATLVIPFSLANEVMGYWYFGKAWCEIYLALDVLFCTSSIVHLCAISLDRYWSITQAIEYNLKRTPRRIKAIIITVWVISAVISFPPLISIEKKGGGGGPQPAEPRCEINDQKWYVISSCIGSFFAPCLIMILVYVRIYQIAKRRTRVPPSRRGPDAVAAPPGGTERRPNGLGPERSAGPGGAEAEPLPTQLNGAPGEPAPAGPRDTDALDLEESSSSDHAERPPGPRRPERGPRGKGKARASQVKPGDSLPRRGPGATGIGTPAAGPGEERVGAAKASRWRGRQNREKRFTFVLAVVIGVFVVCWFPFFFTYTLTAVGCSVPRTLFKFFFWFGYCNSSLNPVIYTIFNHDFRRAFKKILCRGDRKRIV

α2C adrenergic receptor = biological target: T2, α2C adrenergic receptor (Homo sapiens, UniProt P18825); assay: as above
T2 construct: Eurofins Cerep (contract screening)
T2 sequence (P18825 1-462): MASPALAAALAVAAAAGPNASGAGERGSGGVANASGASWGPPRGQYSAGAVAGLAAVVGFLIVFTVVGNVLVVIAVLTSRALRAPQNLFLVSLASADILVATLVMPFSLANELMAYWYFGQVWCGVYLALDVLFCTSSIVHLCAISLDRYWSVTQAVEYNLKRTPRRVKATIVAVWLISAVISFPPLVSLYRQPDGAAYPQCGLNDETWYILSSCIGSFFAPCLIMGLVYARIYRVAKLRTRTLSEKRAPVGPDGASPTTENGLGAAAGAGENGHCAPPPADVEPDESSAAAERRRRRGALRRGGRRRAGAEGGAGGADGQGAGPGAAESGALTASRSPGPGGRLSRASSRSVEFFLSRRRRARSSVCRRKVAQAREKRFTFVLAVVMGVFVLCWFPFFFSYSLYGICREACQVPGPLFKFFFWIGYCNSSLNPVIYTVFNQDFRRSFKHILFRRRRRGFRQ

hKOR = hKOR (Homo sapiens, UniProt P41145); assay: Radioligand binding assay (Eurofins Cerep), [3H]U69,593 displacement
hDOR = hDOR (Homo sapiens, UniProt P41143); assay: Radioligand binding assay (Eurofins Cerep), [3H]DADLE displacement
[1] = Table B1, mean ± SEM, read-out: MOR Ki ± SEM
[2] = Alpha2A Ki ± SEM (nM), Table B1, mean ± SEM, 3 independent experiments
[3] = Table B1, mean ± SEM, 3 independent experiments, read-out: Alpha2C Ki ± SEM
[4] = Alpha2C Ki ± SEM (nM), Table B1, mean ± SEM, 3 independent experiments
[5] = Table 3-1, read-out: Ki (nM ± SEM) MOR
[6] = Table 3-2, read-out: Ki (nM ± SEM) MOR
[7] = Table 3-5, read-out: Ki (nM ± SEM) MOR
[8] = Table 3-6, read-out: Ki (nM ± SEM) MOR
[9] = Table 3-1, 3 independent experiments, read-out: Ki (nM ± SEM) KOR
[10] = Table 3-2, 3 independent experiments, read-out: Ki (nM ± SEM) KOR
[11] = Table 3-5, 3 independent experiments, read-out: Ki (nM ± SEM) KOR
[12] = Table 3-6, 3 independent experiments, read-out: Ki (nM ± SEM) KOR
[13] = Table 3-1, 3 independent experiments, read-out: Ki (nM ± SEM) DOR
[14] = Table 3-2, 3 independent experiments, read-out: Ki (nM ± SEM) DOR
[15] = Table 3-5, 3 independent experiments, read-out: Ki (nM ± SEM) DOR
[16] = Table 3-6, 3 independent experiments, read-out: Ki (nM ± SEM) DOR
[17] = Ki (nM ± SEM) a2A-AR, Table 3-1, 3 independent experiments
[18] = Ki (nM ± SEM) a2A-AR, Table 3-2, 3 independent experiments
[19] = Ki (nM ± SEM) a2A-AR, Table 3-6, 3 independent experiments
[20] = Ki (nM ± SEM) a2A-ar, Table 3-5, 3 independent experiments
[21] = Ki (nM ± SEM) a2C-AR, Table 3-1, 3 independent experiments
[22] = Ki (nM ± SEM) a2C-AR, Table 3-2, 3 independent experiments
[23] = Ki (nM ± SEM) a2C-AR, Table 3-5, 3 independent experiments
[24] = Ki (nM ± SEM) a2C-AR, Table 3-6, 3 independent experiments

hKOR, sequence (P41145 whole entry): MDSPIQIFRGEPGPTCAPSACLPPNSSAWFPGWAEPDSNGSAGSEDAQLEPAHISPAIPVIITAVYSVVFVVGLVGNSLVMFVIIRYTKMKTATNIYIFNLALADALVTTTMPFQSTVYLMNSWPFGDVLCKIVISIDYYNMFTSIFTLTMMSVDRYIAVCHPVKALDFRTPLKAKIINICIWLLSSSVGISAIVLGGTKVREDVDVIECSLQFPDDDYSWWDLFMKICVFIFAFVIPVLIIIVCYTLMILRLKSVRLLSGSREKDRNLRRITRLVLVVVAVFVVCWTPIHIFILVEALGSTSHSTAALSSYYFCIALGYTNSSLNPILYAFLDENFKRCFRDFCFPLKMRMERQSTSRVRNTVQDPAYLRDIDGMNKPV
hDOR, sequence (P41143 whole entry): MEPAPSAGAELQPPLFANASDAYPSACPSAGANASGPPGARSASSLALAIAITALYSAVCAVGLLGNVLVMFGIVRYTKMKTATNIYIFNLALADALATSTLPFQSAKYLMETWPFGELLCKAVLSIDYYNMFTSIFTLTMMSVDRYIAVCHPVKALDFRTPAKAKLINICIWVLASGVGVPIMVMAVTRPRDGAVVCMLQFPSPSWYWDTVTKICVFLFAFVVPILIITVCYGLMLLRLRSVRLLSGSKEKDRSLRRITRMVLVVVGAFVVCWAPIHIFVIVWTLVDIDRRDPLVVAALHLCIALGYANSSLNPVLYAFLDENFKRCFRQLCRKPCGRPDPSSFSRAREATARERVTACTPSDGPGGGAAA
hMOR, sequence (P35372 whole entry): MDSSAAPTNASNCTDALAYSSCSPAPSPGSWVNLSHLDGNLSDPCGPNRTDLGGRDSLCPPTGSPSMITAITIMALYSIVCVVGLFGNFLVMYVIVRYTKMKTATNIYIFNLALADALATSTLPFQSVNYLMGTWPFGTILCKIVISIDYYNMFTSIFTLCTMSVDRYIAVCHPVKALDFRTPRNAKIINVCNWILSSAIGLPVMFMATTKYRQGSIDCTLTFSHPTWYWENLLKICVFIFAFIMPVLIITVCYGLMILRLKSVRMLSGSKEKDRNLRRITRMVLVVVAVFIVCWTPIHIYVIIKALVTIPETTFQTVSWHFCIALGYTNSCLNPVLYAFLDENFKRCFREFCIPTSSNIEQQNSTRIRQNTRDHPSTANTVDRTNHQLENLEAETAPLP

## COC(=O)C=C1CCN2CCC(O)(c3ccccc3OC)CC2C1 (stereo not drawn) [SG-01-005, Methyl 2-(8-hydroxy-8-(2-methoxyphenyl)dihydro-1H-quinolizin-2(6H,7H,8H,9H, 9aH)-ylidene)acetate]
hMOR; [1]
  Ki: > 10000 nM
α2A adrenergic receptor; [2]
  Ki: 264 ± 16 nM
α2C adrenergic receptor; [3]
  Ki: 129 ± 37.9 nM

## COC(=O)CC1CCN2CCC(c3ccccc3OC)CC2C1 (stereo not drawn) [SG-01-008, Methyl 2-(8-(2-methoxyphenyl)octahydro-1H-quinolizin-2-yl)acetate]
hMOR; [1]
  Ki: > 10000 nM
α2A adrenergic receptor; Table B1, mean ± SEM, 3 independent experiments, read-out: Alpha2A Ki ± SEM
  Ki: 27.9 ± 3.05 nM
α2C adrenergic receptor; [4]
  Ki: 13.6 ± 0.828 nM

## COC(=O)CC1CCN(CCc2c[nH]c3cccc(OC)c23)CC1 [Compound 3-22]
hMOR; [5]
  Ki: > 10000 nM
hMOR; [6]
  Ki: > 10000 nM
hMOR; Table 3-3, read-out: Ki (nM ± SEM) MOR
  Ki: > 10000 nM
hMOR; [7]
  Ki: > 10000 nM
hMOR; [8]
  Ki: > 10000 nM
hKOR; [9]
  Ki: > 10000 nM
hKOR; [10]
  Ki: > 10000 nM
hKOR; Table 3-3, 3 independent experiments, read-out: Ki (nM ± SEM) KOR
  Ki: > 10000 nM
hKOR; [11]
  Ki: > 10000 nM
hKOR; [12]
  Ki: > 10000 nM
hDOR; [13]
  Ki: > 10000 nM
hDOR; [14]
  Ki: > 10000 nM
hDOR; Table 3-3, 3 independent experiments, read-out: Ki (nM ± SEM) DOR
  Ki: > 10000 nM
hDOR; [15]
  Ki: > 10000 nM
hDOR; [16]
  Ki: > 10000 nM
α2A adrenergic receptor; [17]
  Ki: 229 ± 24.9 nM
α2A adrenergic receptor; [18]
  Ki: 229 ± 24.9 nM
α2A adrenergic receptor; Ki (nM ± SEM) a2A-AR, Table 3-3, 3 independent experiments
  Ki: 229 ± 24.9 nM
α2A adrenergic receptor; [19]
  Ki: 229 ± 24.9 nM
α2A adrenergic receptor; [20]
  Ki: 229 ± 24.9 nM
α2C adrenergic receptor; [21]
  Ki: 69.3 ± 4.2 nM
α2C adrenergic receptor; [22]
  Ki: 69.3 ± 4.16 nM
α2C adrenergic receptor; Ki (nM ± SEM) a2C-AR, Table 3-3, 3 independent experiments
  Ki: 69.3 ± 4.16 nM
α2C adrenergic receptor; [23]
  Ki: 69.3 ± 4.16 nM
α2C adrenergic receptor; [24]
  Ki: 69.3 ± 4.16 nM

## COC(=O)C=C1CCN2CCC(O)(c3ccccc3OC)CC2C1 (single isomer, unassigned) [SG-01-005B]
hMOR; [1]
  Ki: > 10000 nM
α2A adrenergic receptor; [2]
  Ki: 110 ± 8 nM
α2C adrenergic receptor; [4]
  Ki: 46.7 ± 4.04 nM

## CC[C@@H]1CN2CC[C@@]3(O)C(=Nc4cccc(OC)c43)[C@@H]2C[C@@H]1/C(=C\OC)C(=O)OC [7-Hydroxy Mitragynine, reference compound]
hKOR; Table A1, data summary #1, read-out: KOR Ki ± SEM
  Ki: 450 nM
hKOR; Table A4, data summary #2, read-out: KOR Ki ± SEM
  Ki: 450 nM
hDOR; Table A1, data summary #1, read-out: DOR Ki ± SEM
  Ki: 243 nM
hDOR; Table A4, data summary #2, read-out: DOR Ki ± SEM
  Ki: 243 nM
α2A adrenergic receptor; Table A1, data summary #1, read-out: Alpha2A Ki ± SEM
  Ki: > 10000 nM
α2A adrenergic receptor; Table A4, data summary #2, read-out: Alpha2A Ki ± SEM
  Ki: > 10000 nM
α2C adrenergic receptor; Table A1, data summary #1, read-out: Alpha2C Ki ± SEM
  Ki: > 10000 nM

## CO/C=C(/C(=O)OC)C1CCN(CCc2c[nH]c3ccccc23)CC1 [Compound 3-23]
hMOR; Table 3-1
  SR: Selectivity Ratio (KiMOR/Kiα2A): 0.61
hMOR; [5]
  Ki: 451 ± 108 nM
hMOR; Table 3-2
  SR: Selectivity Ratio (KiMOR/Kiα2A): 0.61
hMOR; [6]
  Ki: 451 ± 108 nM
hMOR; Table 3-4
  SR: Selectivity Ratio (KiMOR/Kiα2A): 0.61
hMOR; Table 3-4, read-out: Ki (nM ± SEM) MOR
  Ki: 451 ± 108 nM
hMOR; Table 3-5
  SR: Selectivity Ratio (KiMOR/Kiα2A): 0.61
hMOR; [7]
  Ki: 451 ± 108 nM
hMOR; Table 3-6
  SR: Selectivity Ratio (KiMOR/Kiα2A): 0.61
hMOR; [8]
  Ki: 451 ± 108 nM
hKOR; [9]
  Ki: 3670 ± 1260 nM
hKOR; [10]
  Ki: 3670 ± 1260 nM
hKOR; Table 3-4, 3 independent experiments, read-out: Ki (nM ± SEM) KOR
  Ki: 3670 ± 1260 nM
hKOR; [11]
  Ki: 3670 ± 1260 nM
hKOR; [12]
  Ki: 3670 ± 1260 nM
hDOR; [13]
  Ki: > 10000 nM
hDOR; [14]
  Ki: > 10000 nM
hDOR; Table 3-4, 3 independent experiments, read-out: Ki (nM ± SEM) DOR
  Ki: > 10000 nM
hDOR; [15]
  Ki: > 10000 nM
hDOR; [16]
  Ki: > 10000 nM
α2A adrenergic receptor; [17]
  Ki: 741 ± 19.3 nM
α2A adrenergic receptor; [18]
  Ki: 741 ± 19.3 nM
α2A adrenergic receptor; Ki (nM ± SEM) a2A-AR, Table 3-4, 3 independent experiments
  Ki: 741 ± 19.3 nM
α2A adrenergic receptor; [19]
  Ki: 741 ± 19.3 nM
α2A adrenergic receptor; [20]
  Ki: 741 ± 19.3 nM
α2C adrenergic receptor; [21]
  Ki: 830 ± 268 nM
α2C adrenergic receptor; [22]
  Ki: 830 ± 268 nM
α2C adrenergic receptor; Ki (nM ± SEM) a2C-AR, Table 3-4, 3 independent experiments
  Ki: 830 ± 268 nM
α2C adrenergic receptor; [23]
  Ki: 830 ± 268 nM
α2C adrenergic receptor; [24]
  Ki: 135 ± 12.5 nM

## C#CCCN1CCC(O)(c2ccccc2OC)CC1 [SG-01-003, 1-(but-3-ynyl)-4-(2-methoxyphenyl)piperidin-4-ol]
hMOR; [1]
  Ki: > 10000 nM
hMOR; binding screen of intermediates
  selectivity between MOR and α 2A: not selective towards both receptors
α2A adrenergic receptor; [2]
  Ki: 5750 ± 1170 nM
α2C adrenergic receptor; [3]
  Ki: > 10000 nM
